Laboratory results taken from patent publication US9981042B2, “Carbon nanotube-based anti-cancer agent capable of suppressing drug resistance” (INDUSTRY-ACADEMIC COOPERATION FOUNDATION GYEONGSANG …, priority 2012, dated 2018).

Key:
[1] = system: MDA-MB-231 tumor; test: Tumor size and weight in MDA-MB-231 tumor model mice after tail vein injection; type: in vivo, BALB/c nude mice
Description: To prepare the animal tumor model, MDA-MB-231 cells were inoculated subcutaneously in the flank of female BALB/c nu/nu (athymic nude) mice (5×10^6 cells per mouse) When the tumor reached a mean volume of 100 mm^3 in the mice were used for the following Experimental Examples.
First, the tumor model mice prepared by transplanting MDA-MB-231 tumor cells to BALB/c nude mice were randomly divided into seven groups (n=10 per group) and injected with 200 μL of 0.5 mg/kg DOX, mwCNT, DOX-mwCNT in PBS, or pure PBS (negative control) in the tail vein. Subjects were weighed at 2, 9, and 16 days. Body weight and tumor sizes were measured twice a week for 21 days, and tumor volumes were calculated by the formula: V(volume)=X(length)×D(width)^2/2.
Twenty one day after the tail vein injection, the changes in tumor size of sacrificed animals were determined.
Furthermore, after the administration of the anticancer agent, tumor tissues taken from the sacrificed animals were weighed. In this case, in order to compare the significance of each group, Prism (GraphPad Software, Inc.) was used for statistical analysis with one-way ANOVA (analysis of variance) (** P<0.01, *** P<0.001).

[2] = system: MDA-MB-231 tumor tissue; test: Histopathological observation (Haematoxylin-Eosin) of tumor tissues; type: in vivo, BALB/c nude mice; conditions: H&E; doxorubicin 0.5 and 5 mg/kg, DOX-mwCNT-25 0.5 mg/kg; versus control
Description: Then, the present inventors anesthetized the mice with ethyl ether, sacrificed them and collected tumor tissues therefrom. After measuring the weight of the collected tumor tissues, the tumor tissues were fixed for 24 hours in 10% formalin, washed with water and dehydrated and dipped in 70, 80, 90, 95 and 100% of ethanol, serially. The tissues were transparentized with xylene and embedded in paraffin. And then the embedded tissues were sliced at a thickness of 5 um, placed on glass slides.

[3] = system: MDA-MB-231 cells; test: Efflux from cells (fluorescence microscopy); type: cell-based; conditions: 100 ng/ml for 2 h, then drug-free medium
Description: In addition, for efflux analysis, MDA-MB-231 cells (1×10^4 cells/well) cultivated in 24 well plate were treated with 100 ng/ml of DOX-mwCNT according to an embodiment of the present invention and doxorubicin, respectively. Two hours after the treatment, culture media was removed and the cells were washed three times with PBS and incubated with regular culture medium containing no anticancer agents for 24 h. Then the degree of efflux of doxorubicin from the cells was observed using a fluorescent microscope (FIG. 27). […] In the experiment, zero time (0 h) means a time when 2 hours has elapsed after removing doxorubicin and washing cells with PBS.

[4] = system: late endosomes in MDA-MB-231 cells; test: High resolution imaging of doxorubicin and late endosome marker; type: cell-based; conditions: 24 h
Description: Furthermore, the present inventors performed a high resolution image analysis for 24 h in order to investigate the degradation of uptaken doxorubicin signal by co-staining doxorubicin and late endosome specific marker. […] Therefore, it was understood that late endosomes act as transporters of doxorubicin excreted from nucleus.

[5] = system: Mrp-1; test: Mrp-1 mRNA expression by RT-PCR; type: cell-based; conditions: 100 ng/ml for 2 h; after 6 hours and later
Description: (§1) MDA-MB-231 breast cancer cells (4×10^5 cells/well) known to overexpress MRP1 were plated in a 6 well plate and 100 ng/ml of doxorubicin and DOX-mwCNT were treated to the cells for 2 h, respectively. Carbon nanotube as a control was treated with a concentration of 348 ng/ml for 2 h.
Two hours after treatment, culture mediums were replaced with DMEM medium supplemented with 10% FBS and not containing mwCNT, DOX, and DOX-mwCNT, and the cells were further incubated. Then RNA was isolated from cells after 2, 6, 12, 24, and 36 hours of incubation, respectively and then Mrp-1 mRNA level was analyzed. In this case, TRIZOL reagent (Invitrogen, USA) and chloroform were used for RNA isolation, then the isolated RNA was reacted with same volume of isopropanol for 2 h, quantified and subjected to RT-PCR (reverse transcriptase PCR).

[6] = system: MRP-1 protein; test: MRP-1 protein western blot; type: cell-based; conditions: 100 ng/ml for 2 h; 24 hours after the treatment
Description: as §1
To confirm the above result in protein level, the present inventors performed western bot analysis of the MRP-1 protein, there was a significant difference in protein expression of MRP-1 between doxorubicin- and DOX-mwCNT-25-treating groups (FIG. 30). […] Despite of previous studies reporting that Mdr-1 and Mrp-1 genes mediate drug resistance of MDA-MB-231, Mdr-1 was hardly detected in this experiment due to short drug exposure time (2 hours).

[7] = Particle size by transmission electron microscope; conditions: in PBS
[8] = system: A549 cells; test: MTT assay on lung cancer cells; type: cell-based; conditions: A549, 48 h, 0.086-1.38 μmol/L
Description: A549 cells (1×10^4 cells/well, CAT: CRL-1658, ATCC) were seeded in a 96-well plate and incubated with DMEM medium supplementing 10% FBS (fetal bovine serum). At this time, the culture was maintained under the condition of 5% of CO2 at 37° C. The cells were cultured for 24 h and mwCNT-COOH, EPI, EPI-EGF, EPI-mwCNT and EPI-EGF-mwCNT were treated to each well with ratios of 0.086, 0.172, 0.345, 0.69, 1.38 μmol/L, respectively and then further cultured for 48 h. And then, drug solutions were removed from the plate, 100 μl of MTT reagent (1 mg/ml, 3-(4,5-dimethylthiazol-2-yl)-2,5-diphenyltetrazolium bromide) was slowly added to each well, and incubated for 1 h at 37° C. Thereafter, 100 μl of DMSO solution per well was added, followed by measuring absorbance at 560 nm using a microplate reader (Model 680, Bio-Rad).
Then, the present inventors treated drugs containing doxorubicin (DOX-EGF, DOX-mwCNT-25, DOX-EGF-mwCNT) to the same lung cancer cell A549. All the condition except drugs were same.

In the case of `COc1cccc2c1C(=O)c1c(O)c3c(c(O)c1C2=O)C[C@@](O)(C(=O)CO)C[C@@H]3O[C@H]1C[C@H](N)[C@H](O)[C@H](C)O1` [DOX, doxorubicin], the “volume and mass of tumors” value ([1]; 0.5 mg/kg, three times I.V. injection, 21 days) is reported as “no notable tumor inhibition”, the “size of tumor tissue compared to control group” value ([1]; large dose 5 mg/kg) is reported as “decreased significantly” and the “necrosis / damage of tumor tissue” value [2] is reported as “increased necrosis”. The “time to complete excretion from cells” value [3] was 6˜12 hours, the late endosome signal [4] was “few late endosomes were observed” and the “expression of Mrp-1 gene” value [5] was “decreased”. For the same molecule, the “protein expression of MRP-1” value [6] was “weak band” and the “particle size (length variation)” value [7] was 0-40 nm.

For `COc1cccc2c1C(=O)c1c(O)c3c(c(O)c1C2=O)C[C@@](O)(C(=O)CO)C[C@@H]3O[C@H]1C[C@H](N)[C@@H](O)[C@H](C)O1` [EPI, epirubicin], the “viability compared to group treated with only mwCNT-COOH” value [8] was “lower viability”.

For “EPI-EGF (NSDSECPLSHDGYCLHDGVCMYIEALDKYACNCVVGYIGERCQYRDLKWWELR; Epidermal growth factor epirubicin conjugate; UniProt P01133 971-1023, looked up)”, the “viability compared to group treated with only mwCNT-COOH” value [8] was “lower viability”.
